The subject of data set [1] is splicing of Ad2.1 pre-mRNA in HeLa nuclear extract. Description: In vitro splicing (IVS), qPCR readout, Ad2.1 substrate. In kind it is biochemical. As for the experimental part:
(§1) To evaluate payload activity in a cell-free system, an in vitro splicing assay was performed. The payloads were incubated with nuclear extracts and pre-mRNA substrate minigenes.
(§2) HeLa nuclear extract preparation: HeLa S3 cell pellets were resuspended in hypotonic buffer (10 mM HEPES pH 7.9, 1.5 mM MgCl2, 10 mM KCl, 0.2 mM PMSF, 0.5 mM DTT) and the suspension was brought up to a total of 5 packed cell volume (PCV). After centrifugation, the supernatant was discarded, and the cells were brought up to 3 PCV with hypotonic buffer and incubated on ice for 10 min. Cells were lysed using a dounce homogenizer and then centrifuged. The supernatant was discarded, and the pellet was resuspended with ½ packed nuclear volume (PNV) of low salt buffer (20 mM HEPES pH 7.9, 1.5 mM MgCl2, 20 mM KCl, 0.2 mM EDTA, 25% glycerol, 0.2 mM PMSF, 0.5 mM DTT), followed by ½ PNV of high salt buffer (same as low salt buffer except 1.4 M KCl). The nuclei were gently mixed for 30 min before centrifuging. The supernatant (nuclear extract) was then dialyzed into storage buffer (20 mM HEPES pH 7.9, 100 mM KCl, 0.2 mM EDTA, 20% glycerol, 0.2 mM PMSF, 0.5 mM DTT). Protein concentration was determined using NanoDrop 8000 UV-Vis spectrophotometer (ThermoFisher Scientific). […]
In general terms: Quantitative PCR measures a nucleic acid by following its amplification.

The test system of another data set is KMS-11 cells. Nature of the data set: 6-day CellTiter-Glo cell viability, KMS-11. Type of data set: cell-based, human. (ATP-based viability assays read luminescence as a measure of living cells.)
A short description of data set [2]: Chemical stability in buffer pH 5.5. Type of data set: physicochemical. The note with it: Mcilvane (Citrate-Phosphate) buffer pH 5.5, 37° C., read-out: Stability %, Mean, t1/2 pH 5.5 (converted). The protocol: Payloads were incubated in Mcilvane (Citrate-Phosphate) buffer, pH 5.5 (Boston Bioproducts; #BB-2466) at a final concentration of 20 μM (less than 0.5% DMSO from stock solution). The payload solution and the internal standard were pipetted into 96-well plates, run on UPLC (Waters Aquity H class), and analyzed for initial chromatographic signal (t=0). The column was a Waters UPLC HSS T31.8 μm 2.1×50 mm column (#186003538). A gradient of mobile phase A from 95% to 10% was employed over 1 min, where A was 0.1% formic acid in water and mobile phase B was 0.1% formic acid in acetonitrile (flow rate 0.9 mL/min). The remainder of the payload solution was kept in a plate shaker at 37° C. (Eppendorf ThermoMixer). Sample analyses by UPLC were repeated at 24, 72, and 96 hours post-incubation at 37° C. The area ratio response of the payload and internal standard was determined for three time points: time 0, day 1, and either day 3 or day 4. Time 0 was set to 100. The area ratio responses of the later time points were compared to time 0. Percent remaining was calculated as follows: (Area Ratio day X/Area Ratio time 0)*100=% remaining. The slope of the line was calculated in Excel comparing the log of % remaining and time point.

Data set [3] deals with splicing of Ad2.2 pre-mRNA in HeLa nuclear extract. Description: In vitro splicing (IVS), qPCR readout, Ad2.2 substrate. In kind it is biochemical. As for the experimental part:
as §1, §2

In another data set the test system is OPM2 cells. Nature of the data set: CellTiter-Glo cell viability, OPM2 (normal serum). Type of data set: cell-based, human. The following applies: for GI50: Homo sapiens.
Another data set has as its system MM1.R cells. Nature of the data set: CellTiter-Glo cell viability, MM1.R. The following applies: for GI50: Homo sapiens, MM.1R. In kind it is cell-based, human.

We go through 1 compound from patent US12043670B2, “Anti-BCMA antibody-drug conjugates and methods of use” (Eisai R&D Management Co., Ltd., priority 2020, dated 2024).

Read-outs that look alike come from different tables or passages of the source.

`CC[C@H](O)[C@@H](C)[C@H]1O[C@@H]1C[C@@](C)(O)/C=C/C=C(\C)[C@H]1OC(=O)C[C@H](O)CC[C@@](C)(O)[C@@H](OC(=O)N2CCNCC2)/C=C/[C@@H]1C` [D1, (2S,3S,6S,7R,10R,E)-7,10-dihydroxy-2-((R,2E,4E)-6-hydroxy-7-((2R,3R)-3-((2R,3S)-3-hydroxypentan-2-yl)oxiran-2-yl)-6-methylhepta-2,4-dien-2-yl)-3,7-dimethyl-12-oxooxacyclododec-4-en-6-yl piperazine-1-carboxylate]: the IC50 came to 16.5 nM in data set [1] and 25 nM in data set [3]. In addition, the GI50 with KMS-11 cells (Homo sapiens, KMS-11, 144 h) came out at 232 nM; with OPM2 cells (OPM-2, 96 h, read-out: CTGlo Mean GI50 OPM2 96 h), 287 nM; in the data set on OPM2 cells (OPM-2, 144 h), 117 nM; in the data set with MM1.R cells (96 h, read-out: CTGlo Mean GI50 MM1.R 96 h), 147 nM; with MM1.R cells (144 h) it was 89.3 nM. In addition, the “AUC (nM * % relative viability)” value in the data set on KMS-11 cells (KMS11 cells, 6 days) was 706.5255 nM * % relative viability; in the data set on OPM2 cells (OPM2 cells, 6 days), 649.8734 nM * % relative viability; in the data set with MM1.R cells (MM1R cells, 6 days), 640.2408 nM * % relative viability. Moreover, the LD50 in the data set with KMS-11 cells (KMS11 cells, 6 days, CellTiter-Glo) amounted to 485.9409 nM; in the data set with OPM2 cells (OPM2 cells, 6 days, CellTiter-Glo) it was 256.8053 nM; with MM1.R cells (MM1R cells, 6 days, CellTiter-Glo) it was 283.0093 nM. Also, the RminAve in the data set with KMS-11 cells (KMS11 cells, 6 days, negative = cell death vs T0) was −99.3474%; in the data set on OPM2 cells (OPM2 cells, 6 days, negative = cell death vs T0), −99.7805%; in the data set on MM1.R cells (MM1R cells, 6 days, negative = cell death vs T0), −99.9109%. In addition, the half-life at 20 μM in data set [2] is 24 h. In the data set with OPM2 cells (payload alone, OPM2, 96 h), the “CTGlo Mean LD50 OPM2 96 h” value was 67.1 nM. The “CTGlo Mean LD50 MM1.R 96 h” value with MM1.R cells (payload alone, MM1.R, 96 h) was 510.8 nM.

A word on the IC50: it is the concentration that gives 50% inhibition. A word on the GI50: it is the concentration at which growth is held to half of that of the control.
